Assay results: patent US20180243327A1, “USE OF SECOISOLARICIRESINOL DIGLUCOSIDES (SDGs) AND RELATED COMPOUNDS FOR PROTECTION AGAINST RADIATION DAMAGE” (THE TRUSTEES OF THE UNIVERSITY OF PENNSYLVANIA, priority 2015, published 2018)

Legend:
[1] = tested on: human precision-cut lung slices (huPCLS); experiment: Proinflammatory cytokine gene levels (qPCR) in huPCLS after 4 Gy proton radiation; assay type: cell-based; conditions: 50 Mm LGM2605 given 4 hours prior, 30 min and 24 hours post irradiation, normalized to 18S rRNA
Protocol: (§1) FIG. 2: Novel Ex vivo model of human lung: human precision-cut lung slices for radiation exposure. Human Precision-cut slice preparation: Slices (huPCLS) were obtained by inflating the donor human lung with low melting temperature agarose, sectioning, coring, and slicing, as shown above. The 350 μm thick slices were washed three times with culture medium to rid airways of agarose and are viable at 37 °C, up to a week.
FIG. 3: Evaluation of inflammatory markers, in huPCLS, at 30 min and 24 hours post 4 Gy proton radiation with or without SDG pre-treatment for 4 hours. Transcript levels of (A) IL1B, (B) IL6 and (C) TNF-alpha are normalized to 18S rRNA. *p<0.05.
(§2) Methods: Since the testing of our hypothesis in human tissues is critical and cannot be mechanistically pursued in patients, we pursued a novel approach, using an ex vivo model of human normal lung precision-cut sections (huPCLS), used for the first time to our knowledge, in radiation studies. The huPCLS consist of all relevant cell types of the respiratory tract, situated in their microanatomical environment, validated for pharmacological testing. Human lung sections were exposed to 4 Gy proton radiation in the presence of 0 and 50 Mm LGM2605, given 4 hours prior to exposure. Tissues were evaluated 30 min and 24 hours post irradiation for gene expression, protein level changes, and betagalactosidase activity, relevant to inflammation, oxidative stress and senescence.

[2] = tested on: human precision-cut lung slices (huPCLS); experiment: Antioxidant gene levels (qPCR) in huPCLS after 4 Gy proton radiation; assay type: cell-based; conditions: 50 Mm LGM2605 given 4 hours prior, 30 min and 24 hours post irradiation, normalized to 18S rRNA
Protocol: as §1
FIG. 4: qPCR analysis of (A) HMOX-1 and (B) NQO1 in huPCLS after 30 min and 24 hours post 4 Gy proton radiation with or without SDG pretreatment for 4 hours. Data are represented as average fold change from non-irradiated control±SEM. Transcript levels of tested genes are normalized to 18S rRNA. *p<0.05.
as §2, with “Human lung sections were exposed to 4 Gy proton radiation in the presence of 0 and 50 Mm LGM2605, given 4 hours prior to exposure.” left out

[3] = tested on: human precision-cut lung slices (huPCLS); experiment: Senescence marker gene levels (qPCR) in huPCLS after 4 Gy proton radiation; assay type: cell-based; conditions: 50 Mm LGM2605 given 4 hours prior, 30 min and 24 hours post irradiation
Protocol: as §1
(§3) FIG. 6: LGM2605 decreases Proton Radiation-induced Senescence Markers, both at the Gene and Protein Level, in huPCLS. […] Transcript levels of tested genes are normalized to 18S rRNA.*p<0.05.
as §2

[4] = tested on: human precision-cut lung slices (huPCLS); experiment: Senescence marker protein levels (Western Blot of whole tissue lysates) in huPCLS treated with proton; assay type: cell-based; conditions: proton radiation, 50 Mm LGM2605 given 4 hours prior
Protocol: as §1, §3, §2

[5] = tested on: human precision-cut lung slices (huPCLS); experiment: SA-β-Gal staining of huPCLS post proton radiation; assay type: cell-based; conditions: 24 hour post proton radiation, 50 Mm LGM2605 given 4 hours prior
Protocol: as §1
FIG. 5: LGM2605 reduces senescent-like phenotype of huPCLS. […] A) SA-β-Gal staining of huPCLS at 24 hour post proton radiation. B) Quantification of the β-gal positive stained cells. Percentage change of the β-gal positive cells of the irradiated huPCLS compared to the nonirradiated huPCLS.
as §2, with “Human lung sections were exposed to 4 Gy proton radiation in the presence of 0 and 50 Mm LGM2605, given 4 hours prior to exposure.” left out

[6] = Activity of synthetic SDG compared with natural SDG; conditions: synthetic vs natural counterpart
Source text: Using a mouse model of proton radiation exposure, we have identified dose-dependent pathophysiological changes in the lung. […] Thus, we further hypothesize that LGM2605 will be effective against proton-induced pulmonary damage, such as inflammation, oxidative stress and senescence.

[7] = Antioxidant and free radical scavenging characteristics
Source text: FIG. 1. Bioactive polyphenolic plant lignans in flaxseed and radiation Damage. Secoisolariciresinol diglucoside (SDG) is the major lignan phenolic in flaxseed. Due to complex SDG extraction, purification and enrichment methods from natural resources, SDG was chemically synthesized. […] (B) The structure of SDG.

With `COc1cc(C[C@@H](CO[C@@H]2O[C@H](CO)[C@@H](O)[C@H](O)[C@H]2O)[C@H](CO[C@@H]2O[C@H](CO)[C@@H](O)[C@H](O)[C@H]2O)Cc2ccc(O)c(OC)c2)ccc1O` [LGM2605, secoisolariciresinol diglucoside] the “IL-1β (IL1B) inflammatory marker gene level” value [1] was “reduction”, the “IL-6 (IL6) inflammatory marker gene level” value [1] was “reduction” and the “TNFα inflammatory marker gene level” value [1] was “reduction”. The “antioxidant HO (HMOX-1) gene level” value [2] was “increase”, the “antioxidant NQO1 gene level” value [2] was “increase” and the “CDKN2A senescent marker gene level” value [3] was “reduces”. For the same compound, the “TP53 senescent marker gene level” value [3] was “reduces”, the “p16 senescent marker protein level” value [4] was “reduces” and the “p53 senescent marker protein level” value [4] was “reduces”. The “senescent-like phenotype (SA-β-galactosidase positive staining)” value [5] was “protects huPCLS from a senescent-like phenotype”, the “activity relative to natural SDG” value [6] was “equipotent activity with its natural counterpart” and the “antioxidant and free radical scavenging characteristics” value [7] was “strong antioxidant and free radical, scavenging characteristics”.
